{
  "source": "paper PMC5218480",
  "about": "(PLoS ONE, 2017)",
  "system": "MV-4-11 cells",
  "assay": "Gene expression microarray analysis (Affymetrix PrimeView) and GSEA",
  "format": "cell-based, human",
  "set-up": "RFU PODN (11730768_x_at) / Fold change /veh PODN (11730768_x_at) / RFU LINC00158 (11744669_a_at) / Fold change /veh LINC00158 (11744669_a_at) / RFU DUSP10 (11751237_a_at) / Fold change /veh DUSP10 (11751237_a_at) / RFU ID3 (11757404_x_at) / Fold change /veh ID3 (11757404_x_at) / RFU PLEKHG5 (11737974_s_at) / Fold change /veh PLEKHG5 (11737974_s_at) / RFU LRRC4B (11730491_at) / Fold change /veh LRRC4B (11730491_at) / RFU GIMAP4 (11747438_a_at) / Fold change /veh GIMAP4 (11747438_a_at) / RFU KRT8 (11758183_x_at) / Fold change /veh KRT8 (11758183_x_at) / RFU CNN1 (11734310_a_at) / Fold change /veh CNN1 (11734310_a_at) / RFU VPS37D (11726825_at) / Fold change /veh VPS37D (11726825_at) / RFU C10orf10 (11716522_x_at) / Fold change /veh C10orf10 (11716522_x_at) / RFU KIR2DL2 /// KIR2DL4 /// KIR2DL5A /// KIR2DL5B /// KIR2DS1 /// KIR2DS2 /// KIR2DS3 /// KIR2DS4 /// KIR3DL3 /// KIR3DL3 /// KIR3DS1 (11738374_at) / Fold change /veh KIR2DL2 /// KIR2DL4 /// KIR2DL5A /// KIR2DL5B /// KIR2DS1 /// KIR2DS2 /// KIR2DS3 /// KIR2DS4 /// KIR3DL3 /// KIR3DL3 /// KIR3DS1 (11738374_at) / RFU C1QL1 (11718748_at) / Fold change /veh C1QL1 (11718748_at) / RFU TMPRSS4 (11747572_a_at) / Fold change /veh TMPRSS4 (11747572_a_at) / RFU HAMP (11756126_x_at) / Fold change /veh HAMP (11756126_x_at) / RFU RNFT2 (11725882_a_at) / Fold change /veh RNFT2 (11725882_a_at) / RFU NR4A2 (11747474_a_at) / Fold change /veh NR4A2 (11747474_a_at) / RFU ABCC12 (11746883_a_at) / Fold change /veh ABCC12 (11746883_a_at) / RFU TMEM136 (11760407_x_at) / Fold change /veh TMEM136 (11760407_x_at) / RFU CLDN22 /// WWC2 (11732394_at) / Fold change /veh CLDN22 /// WWC2 (11732394_at) / RFU HLA-DPB1 (11760878_x_at) / Fold change /veh HLA-DPB1 (11760878_x_at) / RFU SPINT1 (11716480_a_at) / Fold change /veh SPINT1 (11716480_a_at) / RFU GAP43 (11754022_s_at) / Fold change /veh GAP43 (11754022_s_at) / RFU A4GNT (11735810_at) / Fold change /veh A4GNT (11735810_at) / RFU PRB3 (11715151_x_at) / Fold change /veh PRB3 (11715151_x_at) / RFU TUBB4B (11761932_at) / Fold change /veh TUBB4B (11761932_at) / RFU CAPN14 (11732068_a_at) / Fold change /veh CAPN14 (11732068_a_at) / RFU TMCC2 (11721928_a_at) / Fold change /veh TMCC2 (11721928_a_at) / RFU IRGQ (11745062_a_at) / Fold change /veh IRGQ (11745062_a_at) / RFU FAM174B (11720279_a_at) / Fold change /veh FAM174B (11720279_a_at) / RFU TMPRSS4 (11748680_a_at) / Fold change /veh TMPRSS4 (11748680_a_at) / RFU FAM212B (11763350_a_at) / Fold change /veh FAM212B (11763350_a_at) / RFU PLEKHG5 (11743358_a_at) / Fold change /veh PLEKHG5 (11743358_a_at) / RFU ZSCAN30 (11745921_a_at) / Fold change /veh ZSCAN30 (11745921_a_at) / RFU CMKLR1 (11741424_a_at) / Fold change /veh CMKLR1 (11741424_a_at) / RFU LOC101060620 /// MAPK8IP1 (11723275_at) / Fold change /veh LOC101060620 /// MAPK8IP1 (11723275_at) / RFU SPTSSB (11747773_x_at) / Fold change /veh SPTSSB (11747773_x_at) / RFU PRSS12 (11739890_at) / Fold change /veh PRSS12 (11739890_at) / RFU BIN1 (11741810_x_at) / Fold change /veh BIN1 (11741810_x_at) / RFU WNT11 (11732464_a_at) / Fold change /veh WNT11 (11732464_a_at) / RFU C10orf10 (11716521_a_at) / Fold change /veh C10orf10 (11716521_a_at) / RFU C5orf56 (11738089_at) / Fold change /veh C5orf56 (11738089_at) / RFU CYB561 (11721691_x_at) / Fold change /veh CYB561 (11721691_x_at) / RFU ANKRD19P (11752326_a_at) / Fold change /veh ANKRD19P (11752326_a_at) / RFU OR2T12 /// OR2T33 /// OR2T8 (11738714_s_at) / Fold change /veh OR2T12 /// OR2T33 /// OR2T8 (11738714_s_at) / RFU VCAN (11748164_a_at) / Fold change /veh VCAN (11748164_a_at) / RFU JSRP1 (11732532_at) / Fold change /veh JSRP1 (11732532_at) / RFU KRTAP10-11 (11738290_x_at) / Fold change /veh KRTAP10-11 (11738290_x_at) / RFU MYO3A (11730013_a_at) / Fold change /veh MYO3A (11730013_a_at) / RFU EBF3 (11725865_a_at) / Fold change /veh EBF3 (11725865_a_at) / RFU CAMK2N1 (11719241_x_at) / Fold change /veh CAMK2N1 (11719241_x_at) / RFU C5orf56 (11738088_a_at) / Fold change /veh C5orf56 (11738088_a_at) / RFU OLFML3 (11715873_a_at) / Fold change /veh OLFML3 (11715873_a_at) / RFU LOC100653217 /// NTM (11731650_a_at) / Fold change /veh LOC100653217 /// NTM (11731650_a_at) / RFU MAPK11 (11762145_a_at) / Fold change /veh MAPK11 (11762145_a_at) / RFU FIZ1 (11724087_x_at) / Fold change /veh FIZ1 (11724087_x_at) / RFU OASL (11726364_x_at) / Fold change /veh OASL (11726364_x_at) / RFU SOX15 (11748057_x_at) / Fold change /veh SOX15 (11748057_x_at) / RFU CD79A (11719716_a_at) / Fold change /veh CD79A (11719716_a_at) / RFU HIST1H1D (11736915_at) / Fold change /veh HIST1H1D (11736915_at) / RFU CASKIN2 (11723855_a_at) / Fold change /veh CASKIN2 (11723855_a_at) / RFU LOC730098 (11760151_x_at) / Fold change /veh LOC730098 (11760151_x_at) / RFU OR4N2 (11742367_at) / Fold change /veh OR4N2 (11742367_at) / RFU PRRT2 (11749266_a_at) / Fold change /veh PRRT2 (11749266_a_at) / RFU SNX32 (11753110_a_at) / Fold change /veh SNX32 (11753110_a_at) / RFU CDHR5 (11726645_a_at) / Fold change /veh CDHR5 (11726645_a_at) / RFU RCAN1 (11760418_a_at) / Fold change /veh RCAN1 (11760418_a_at) / RFU FAM167A (11723789_a_at) / Fold change /veh FAM167A (11723789_a_at) / RFU FAM26E (11764081_at) / Fold change /veh FAM26E (11764081_at) / RFU ISYNA1 (11749810_s_at) / Fold change /veh ISYNA1 (11749810_s_at) / RFU ACY1 (11761880_at) / Fold change /veh ACY1 (11761880_at) / RFU 11764098_at / Fold change /veh 11764098_at / RFU SAMD14 (11745864_x_at) / Fold change /veh SAMD14 (11745864_x_at) / RFU NPB (11741838_a_at) / Fold change /veh NPB (11741838_a_at) / RFU TMPRSS6 (11731388_a_at) / Fold change /veh TMPRSS6 (11731388_a_at) / RFU KRTAP10-2 (11738614_at) / Fold change /veh KRTAP10-2 (11738614_at) / RFU ARHGAP8 /// PRR5-ARHGAP8 (11727945_x_at) / Fold change /veh ARHGAP8 /// PRR5-ARHGAP8 (11727945_x_at) / RFU KRTAP5-7 /// NADSYN1 (11734609_at) / Fold change /veh KRTAP5-7 /// NADSYN1 (11734609_at) / RFU RASL12 (11751679_a_at) / Fold change /veh RASL12 (11751679_a_at) / RFU CDKN2B (11736163_a_at) / Fold change /veh CDKN2B (11736163_a_at) / RFU PRF1 (11729649_at) / Fold change /veh PRF1 (11729649_at) / RFU, ZNF638 /// ZNF638-IT1 / Fold change vs veh, ZNF638 /// ZNF638-IT1 / RFU, PANK3 / Fold change vs veh, PANK3 / RFU, SH3YL1 / Fold change vs veh, SH3YL1 / RFU, ZEB2 / Fold change vs veh, ZEB2 / RFU, NRIP1 / Fold change vs veh, NRIP1 / RFU, PTTG1IP / Fold change vs veh, PTTG1IP / RFU, CAPN2 / Fold change vs veh, CAPN2 / RFU, MED14 / Fold change vs veh, MED14 / RFU, SNORA58 / Fold change vs veh, SNORA58 / RFU, C1orf63 / Fold change vs veh, C1orf63 / RFU, LRRFIP1 / Fold change vs veh, LRRFIP1 / RFU, NDUFAF7 / Fold change vs veh, NDUFAF7 / RFU, SLC12A2 / Fold change vs veh, SLC12A2 / RFU, IBTK / Fold change vs veh, IBTK / RFU, ESF1 / Fold change vs veh, ESF1 / Fold change vs veh, TMEM50B / RFU, TAOK1 / Fold change vs veh, TAOK1 / RFU, ACBD3 / Fold change vs veh, ACBD3 / RFU, TMA16 / Fold change vs veh, TMA16 / RFU, RWDD3 / Fold change vs veh, RWDD3 / RFU, BCAT1 / Fold change vs veh, BCAT1 / RFU, EDEM3 / Fold change vs veh, EDEM3 / RFU, TMEM33 / Fold change vs veh, TMEM33 / RFU, WDR75 / Fold change vs veh, WDR75 / RFU, AHCTF1 / Fold change vs veh, AHCTF1 / RFU, TFRC / Fold change vs veh, TFRC / RFU, ZDHHC17 / Fold change vs veh, ZDHHC17 / RFU, NOM1 / Fold change vs veh, NOM1 / RFU, ARL8B / Fold change vs veh, ARL8B / RFU, ZBTB11 / Fold change vs veh, ZBTB11 / RFU, TAMM41 / Fold change vs veh, TAMM41 / RFU, KIAA1704 /// LOC100996395 / Fold change vs veh, KIAA1704 /// LOC100996395 / RFU, ING1 / Fold change vs veh, ING1 / RFU, TRMT61B / Fold change vs veh, TRMT61B / RFU, FUBP3 / Fold change vs veh, FUBP3 / RFU, TP53 / Fold change vs veh, TP53 / RFU, TNKS2 / Fold change vs veh, TNKS2 / RFU, ZFP14 / Fold change vs veh, ZFP14 / RFU, ACTR2 / Fold change vs veh, ACTR2 / RFU, PPP3R1 / Fold change vs veh, PPP3R1 / RFU, PIK3R1 / Fold change vs veh, PIK3R1 / RFU, HNRNPA1 / Fold change vs veh, HNRNPA1 / RFU, RNF170 / Fold change vs veh, RNF170 / RFU, ZNF28 / Fold change vs veh, ZNF28 / RFU, RNGTT / Fold change vs veh, RNGTT / RFU, OGT / Fold change vs veh, OGT / RFU, BRD1 / Fold change vs veh, BRD1 / RFU, MARS / Fold change vs veh, MARS / RFU, ZNF655 / Fold change vs veh, ZNF655 / RFU, FAHD1 / Fold change vs veh, FAHD1 / RFU, BDP1 / Fold change vs veh, BDP1 / RFU, LRRCC1 / Fold change vs veh, LRRCC1 / RFU, ARID1A / Fold change vs veh, ARID1A / RFU, ZNF146 / Fold change vs veh, ZNF146 / RFU, ZNF330 / Fold change vs veh, ZNF330 / RFU, GPN3 / Fold change vs veh, GPN3 / RFU, C9orf123 / Fold change vs veh, C9orf123 / RFU, N4BP2L2 / Fold change vs veh, N4BP2L2 / RFU, ARFIP1 / Fold change vs veh, ARFIP1 / RFU, FAM179B / Fold change vs veh, FAM179B / RFU, BCL10 / Fold change vs veh, BCL10 / RFU, UHRF1BP1L / Fold change vs veh, UHRF1BP1L / RFU, BET1 / Fold change vs veh, BET1 / RFU, CNOT2 / Fold change vs veh, CNOT2 / RFU, ZNF268 / Fold change vs veh, ZNF268 / Fold change vs veh, ZNF507 / RFU, DGCR2 / Fold change vs veh, DGCR2 / RFU, WDSUB1 / Fold change vs veh, WDSUB1 / Fold change vs veh, HSP90B1 /// MIR3652 / RFU, ADSS / Fold change vs veh, ADSS / RFU, GK / Fold change vs veh, GK / RFU, ZNF148 / Fold change vs veh, ZNF148 / RFU, TAF9 / Fold change vs veh, TAF9 / RFU, SLC1A5 / Fold change vs veh, SLC1A5 / RFU, SLMO2 / Fold change vs veh, SLMO2 / RFU, ABCC4 / Fold change vs veh, ABCC4 / RFU, LOC101060439 /// RAP1B / Fold change vs veh, LOC101060439 /// RAP1B / RFU, RFX7 / Fold change vs veh, RFX7 / RFU, GTPBP10 / Fold change vs veh, GTPBP10 / RFU, CNEP1R1 / Fold change vs veh, CNEP1R1 / RFU, BIVM-ERCC5 /// ERCC5 / Fold change vs veh, BIVM-ERCC5 /// ERCC5 / RFU, ILF3 / Fold change vs veh, ILF3 / RFU 11762660_at / Fold change /veh 11762660_at / RFU VCAN (11757783_s_at) / Fold change /veh VCAN (11757783_s_at) / RFU DDX43 (11728927_at) / Fold change /veh DDX43 (11728927_at) / RFU KRT8 (11758188_x_at) / Fold change /veh KRT8 (11758188_x_at) / RFU NKD1 (11759106_at) / Fold change /veh NKD1 (11759106_at) / RFU SRD5A1 (11742802_a_at) / Fold change /veh SRD5A1 (11742802_a_at) / RFU TPSAB1 /// TPSB2 (11721975_s_at) / Fold change /veh TPSAB1 /// TPSB2 (11721975_s_at) / RFU GSTM3 (11746129_a_at) / Fold change /veh GSTM3 (11746129_a_at) / RFU IL23R (11737362_x_at) / Fold change /veh IL23R (11737362_x_at) / RFU TMEM51 (11727254_a_at) / Fold change /veh TMEM51 (11727254_a_at) / RFU PIWIL2 (11732686_x_at) / Fold change /veh PIWIL2 (11732686_x_at) / RFU ORM1 (11744905_x_at) / Fold change /veh ORM1 (11744905_x_at) / RFU CCDC152 (11743942_at) / Fold change /veh CCDC152 (11743942_at) / RFU ECM1 (11717891_a_at) / Fold change /veh ECM1 (11717891_a_at) / RFU IL23R (11748794_a_at) / Fold change /veh IL23R (11748794_a_at) / RFU TNFAIP8L3 (11732012_x_at) / Fold change /veh TNFAIP8L3 (11732012_x_at) / RFU MBOAT4 (11741988_at) / Fold change /veh MBOAT4 (11741988_at) / RFU 11764193_at / Fold change /veh 11764193_at / RFU TMEM53 (11763286_at) / Fold change /veh TMEM53 (11763286_at) / RFU MAGEB2 (11727129_at) / Fold change /veh MAGEB2 (11727129_at) / RFU TMEM200A (11744735_a_at) / Fold change /veh TMEM200A (11744735_a_at) / RFU CCDC152 (11751479_a_at) / Fold change /veh CCDC152 (11751479_a_at) / RFU FAM211A (11726209_a_at) / Fold change /veh FAM211A (11726209_a_at) / RFU RGS16 (11746705_a_at) / Fold change /veh RGS16 (11746705_a_at) / RFU VCAN (11755009_s_at) / Fold change /veh VCAN (11755009_s_at) / RFU RHOB (11743442_s_at) / Fold change /veh RHOB (11743442_s_at) / RFU RGS16 (11720943_a_at) / Fold change /veh RGS16 (11720943_a_at) / RFU RGS16 (11720944_at) / Fold change /veh RGS16 (11720944_at) / RFU, VPS4B / Fold change vs veh, VPS4B / RFU, CREB1 / Fold change vs veh, CREB1 / RFU, DNAJC13 / Fold change vs veh, DNAJC13 / RFU, GNAQ / Fold change vs veh, GNAQ / RFU, CDK5R1 / Fold change vs veh, CDK5R1 / RFU, ZRANB3 / Fold change vs veh, ZRANB3 / RFU, CUL4A / Fold change vs veh, CUL4A / RFU, CCNY / Fold change vs veh, CCNY / RFU, UFL1 / Fold change vs veh, UFL1 / RFU, COG3 / Fold change vs veh, COG3 / RFU, DIAPH2 / Fold change vs veh, DIAPH2 / RFU, SKA2 / Fold change vs veh, SKA2 / RFU, AFF3 / Fold change vs veh, AFF3 / RFU, LMF1 / Fold change vs veh, LMF1 / RFU, IPO11 / Fold change vs veh, IPO11 / RFU, DFFB / Fold change vs veh, DFFB / RFU, FOXP1 / Fold change vs veh, FOXP1 / RFU, CARD8 / Fold change vs veh, CARD8 / RFU, STRN3 / Fold change vs veh, STRN3 / RFU, ADK / Fold change vs veh, ADK / RFU, RASSF2 / Fold change vs veh, RASSF2 / RFU, WIPF1 / Fold change vs veh, WIPF1 / RFU, LARP1B / Fold change vs veh, LARP1B / RFU, RASA1 / Fold change vs veh, RASA1 / RFU, RB1 / Fold change vs veh, RB1 / RFU, PPFIA1 / Fold change vs veh, PPFIA1 / RFU, MAT2A / Fold change vs veh, MAT2A / RFU, CCT5 / Fold change vs veh, CCT5 / RFU, WDR92 / Fold change vs veh, WDR92 / RFU, CUX1 / Fold change vs veh, CUX1 / RFU, TTC7A / Fold change vs veh, TTC7A / RFU, TMEM135 / Fold change vs veh, TMEM135 / RFU, DEPTOR / Fold change vs veh, DEPTOR / RFU, CPM / Fold change vs veh, CPM / RFU, DNAJB6 / Fold change vs veh, DNAJB6 / RFU, CACNA2D3 / Fold change vs veh, CACNA2D3 / RFU, DTX4 / Fold change vs veh, DTX4 / RFU, TFCP2 / Fold change vs veh, TFCP2 / RFU, GMCL1 /// GMCL1P1 / Fold change vs veh, GMCL1 /// GMCL1P1 / RFU, AEBP2 / Fold change vs veh, AEBP2 / RFU, SNHG1 /// SNORD22 /// SNORD25 /// SNORD26 /// SNORD27 /// SNORD28 /// SNORD29 /// SNORD31 / Fold change vs veh, SNHG1 /// SNORD22 /// SNORD25 /// SNORD26 /// SNORD27 /// SNORD28 /// SNORD29 /// SNORD31 / Fold change (Aza/veh), C12orf56 (ProbeSet 11735607_a_at) / Fold change (ACY-1035/veh), C12orf56 (ProbeSet 11735607_a_at) / Fold change (Aza/veh), FGFR1OP (ProbeSet 11751329_s_at) / Fold change (ACY-1035/veh), FGFR1OP (ProbeSet 11751329_s_at) / Fold change (Aza/veh), VPS36 (ProbeSet 11739960_a_at) / Fold change (ACY-1035/veh), VPS36 (ProbeSet 11739960_a_at) / RFU SYPL1 (11715823_x_at) / Fold change /veh SYPL1 (11715823_x_at) / RFU IGFBP7 (11715501_s_at) / Fold change /veh IGFBP7 (11715501_s_at) / RFU REEP3 (11722064_at) / Fold change /veh REEP3 (11722064_at) / RFU IGLL1 (11728026_x_at) / Fold change /veh IGLL1 (11728026_x_at): dose or concentration left out as unconfirmed",
  "conditions": "ProbeSet 11720269_a_at; LIST B",
  "data": [
    {"smiles": "Nc1ccc(-c2cccs2)cc1NC(=O)c1ccc2c(c1)cc(C1CC1)n2CCN1CCOCC1", "note": "[ACY-1035]", "values": [
      {"measurement": "RFU, IBTK", "result": 758.00, "unit": "RFU"}
    ]}
  ]
}
